Measurements published in ChEMBL document CHEMBL5608184, “Discovery and mechanistic insights into thieno[3,2-d]pyrimidine and heterocyclic fused pyrimidines inhibitors targeting tubulin for cancer therapy” (Eur J Med Chem, 2024).
Blank lines part the entries; values can stand above or below the compound they belong to.

Columns and labels:
Tubulin = test: Binding affinity to CM5-chip immobilized tubulin (unknown origin) assessed as dissociation constant by SPR analysis; format: protein-complex assay, Homo sapiens
SK-OV-3 [1] = test: Induction of cell cycle arrest at G2/M phase in human SK-OV-3 cells at 0.625 nM incubated for 24 hrs by PI staining based flow cytometry (reference value: 29.73 %); format: functional
SK-OV-3 [2] = test: Induction of cell cycle arrest at G2/M phase in human SK-OV-3 cells at 1.25 nM incubated for 24 hrs by PI staining based flow cytometry (reference value: 29.73 %); format: functional
SK-OV-3 [3] = test: Induction of cell cycle arrest at G2/M phase in human SK-OV-3 cells at 2.5 nM incubated for 24 hrs by PI staining based flow cytometry (reference value: 29.73 %); format: functional
SK-OV-3 [4] = test: Induction of cell cycle arrest at G2/M phase in human SK-OV-3 cells at 5 nM incubated for 24 hrs by PI staining based flow cytometry (reference value: 29.73 %); format: functional
SK-OV-3 [5] = test: Induction of apoptosis in human SK-OV-3 cells assessed as viable cells at 0.625 nM incubated for 48 hrs by Annexin V-APC-A/7-AAD-A staining based flow cytometry (reference value: 97.17 %); format: functional; details: read-out: Activity
SK-OV-3 [6] = test: Induction of apoptosis in human SK-OV-3 cells assessed as early apoptotic cells at 0.625 nM incubated for 48 hrs by Annexin V-APC-A/7-AAD-A staining based flow cytometry (reference value: 1.12 %); format: functional
SK-OV-3 [7] = test: Induction of apoptosis in human SK-OV-3 cells assessed as late apoptotic cells at 0.625 nM incubated for 48 hrs by Annexin V-APC-A/7-AAD-A staining based flow cytometry (reference value: 1.22 %); format: functional
SK-OV-3 [8] = test: Induction of apoptosis in human SK-OV-3 cells assessed as necrotic cells at 0.625 nM incubated for 48 hrs by Annexin V-APC-A/7-AAD-A staining based flow cytometry (reference value: 0.48 %); format: functional
SK-OV-3 [9] = test: Induction of apoptosis in human SK-OV-3 cells assessed as early apoptotic cells at 1.25 nM incubated for 48 hrs by Annexin V-APC-A/7-AAD-A staining based flow cytometry (reference value: 1.12 %); format: functional
SK-OV-3 [10] = test: Induction of apoptosis in human SK-OV-3 cells assessed as necrotic cells at 1.25 nM incubated for 48 hrs by Annexin V-APC-A/7-AAD-A staining based flow cytometry (reference value: 0.48 %); format: functional
SK-OV-3 [11] = test: Induction of apoptosis in human SK-OV-3 cells assessed as viable cells at 2.5 nM incubated for 48 hrs by Annexin V-APC-A/7-AAD-A staining based flow cytometry (reference value: 97.17 %); format: functional; details: read-out: Activity
SK-OV-3 [12] = test: Induction of apoptosis in human SK-OV-3 cells assessed as necrotic cells at 2.5 nM incubated for 48 hrs by Annexin V-APC-A/7-AAD-A staining based flow cytometry (reference value: 0.48 %); format: functional
SK-OV-3 [13] = test: Induction of apoptosis in human SK-OV-3 cells assessed as viable cells at 5 nM incubated for 48 hrs by Annexin V-APC-A/7-AAD-A staining based flow cytometry (reference value: 97.17 %); format: functional; details: read-out: Activity
SK-OV-3 [14] = test: Induction of apoptosis in human SK-OV-3 cells assessed as early apoptotic cells at 5 nM incubated for 48 hrs by Annexin V-APC-A/7-AAD-A staining based flow cytometry (reference value: 1.12 %); format: functional
SK-OV-3 [15] = test: Induction of apoptosis in human SK-OV-3 cells assessed as late apoptotic cells at 5 nM incubated for 48 hrs by Annexin V-APC-A/7-AAD-A staining based flow cytometry (reference value: 1.22 %); format: functional
SK-OV-3 [16] = test: Induction of apoptosis in human SK-OV-3 cells assessed as necrotic cells at 5 nM incubated for 48 hrs by Annexin V-APC-A/7-AAD-A staining based flow cytometry (reference value: 0.48 %); format: functional
SK-OV-3 [17] = test: Inhibition of cell migration in human SK-OV-3 cells assessed as relative wound density at 0.625 nM incubated for 24 hrs by wound healing assay (reference value: 74.53 %); format: functional; set-up: scale not given: the % may be the effect or the level left
SK-OV-3 [18] = test: Inhibition of cell migration in human SK-OV-3 cells assessed as relative wound density at 5 nM incubated for 24 hrs by wound healing assay (reference value: 74.53 %); format: functional; set-up: scale not given: the % may be the effect or the level left
SK-OV-3 [19] = test: Induction of cell cycle arrest at G2/M phase in human SK-OV-3 cells at 0.625 nM incubated for 24 hrs by PI staining based flow cytometry (reference value: 30.13 %); format: functional
SK-OV-3 [20] = test: Induction of apoptosis in human SK-OV-3 cells assessed as viable cells at 0.625 nM incubated for 48 hrs by Annexin V-APC-A/7-AAD-A staining based flow cytometry (reference value: 97.50 %); format: functional; details: read-out: Activity
SK-OV-3 [21] = test: Induction of apoptosis in human SK-OV-3 cells assessed as early apoptotic cells at 0.625 nM incubated for 48 hrs by Annexin V-APC-A/7-AAD-A staining based flow cytometry (reference value: 1.10 %); format: functional
SK-OV-3 [22] = test: Induction of apoptosis in human SK-OV-3 cells assessed as late apoptotic cells at 1.25 nM incubated for 48 hrs by Annexin V-APC-A/7-AAD-A staining based flow cytometry (reference value: 1.20 %); format: functional
SK-OV-3 [23] = test: Induction of apoptosis in human SK-OV-3 cells assessed as viable cells at 2.5 nM incubated for 48 hrs by Annexin V-APC-A/7-AAD-A staining based flow cytometry (reference value: 97.50 %); format: functional; details: read-out: Activity
SK-OV-3 [24] = test: Induction of apoptosis in human SK-OV-3 cells assessed as early apoptotic cells at 2.5 nM incubated for 48 hrs by Annexin V-APC-A/7-AAD-A staining based flow cytometry (reference value: 1.10 %); format: functional
SK-OV-3 [25] = test: Induction of apoptosis in human SK-OV-3 cells assessed as late apoptotic cells at 2.5 nM incubated for 48 hrs by Annexin V-APC-A/7-AAD-A staining based flow cytometry (reference value: 1.20 %); format: functional
SK-OV-3 [26] = test: Induction of apoptosis in human SK-OV-3 cells assessed as necrotic cells at 2.5 nM incubated for 48 hrs by Annexin V-APC-A/7-AAD-A staining based flow cytometry (reference value: 0.21 %); format: functional
SK-OV-3 [27] = test: Induction of apoptosis in human SK-OV-3 cells assessed as early apoptotic cells at 5 nM incubated for 48 hrs by Annexin V-APC-A/7-AAD-A staining based flow cytometry (reference value: 1.10 %); format: functional
SK-OV-3 [28] = test: Induction of apoptosis in human SK-OV-3 cells assessed as late apoptotic cells at 5 nM incubated for 48 hrs by Annexin V-APC-A/7-AAD-A staining based flow cytometry (reference value: 1.20 %); format: functional
SK-OV-3 [29] = test: Induction of apoptosis in human SK-OV-3 cells assessed as necrotic cells at 5 nM incubated for 48 hrs by Annexin V-APC-A/7-AAD-A staining based flow cytometry (reference value: 0.21 %); format: functional
SK-OV-3 [30] = test: Inhibition of cell migration in human SK-OV-3 cells assessed as relative wound density at 1.25 nM incubated for 24 hrs by wound healing assay (reference value: 61.61 %); format: functional; set-up: scale not given: the % may be the effect or the level left
SK-OV-3 [31] = test: Inhibition of cell migration in human SK-OV-3 cells assessed as relative wound density at 5 nM incubated for 24 hrs by wound healing assay (reference value: 61.61 %); format: functional; set-up: scale not given: the % may be the effect or the level left

Kd (Tubulin): 24.4 µM
Compound: COc1ccc2c(c1)NC(=O)CN2c1nc(Cl)nc2ccsc12
Activity (SK-OV-3 [1]): 41.72% | Activity (SK-OV-3 [2]): 85.13% | Activity (SK-OV-3 [3]): 88.2% | Activity (SK-OV-3 [4]): 88.67% | viability at 0.000625 µM (SK-OV-3 [5]): 81% | Activity (SK-OV-3 [6]): 15.61% | Activity (SK-OV-3 [7]): 2.48% | Activity (SK-OV-3 [8]): 0.91% | Activity (SK-OV-3 [9]): 38.42% | Activity (SK-OV-3 [10]): 2.6% | viability at 0.0025 µM (SK-OV-3 [11]): 53.9% | Activity (SK-OV-3 [12]): 2.32% | viability at 0.005 µM (SK-OV-3 [13]): 62.1% | Activity (SK-OV-3 [14]): 31.24% | Activity (SK-OV-3 [15]): 4.63% | Activity (SK-OV-3 [16]): 2.06% | Activity (SK-OV-3 [17]): 67.94% | Activity (SK-OV-3 [18]): 7.98%

Compound: COc1ccc(N(C)c2nc(Cl)nc3ccn(C)c23)cc1
Activity (SK-OV-3 [19]): 32.3% | viability at 0.000625 µM (SK-OV-3 [20]): 96.2% | Activity (SK-OV-3 [21]): 1.53% | Activity (SK-OV-3 [22]): 2.48% | viability at 0.0025 µM (SK-OV-3 [23]): 75.9% | Activity (SK-OV-3 [24]): 20.62% | Activity (SK-OV-3 [25]): 2.27% | Activity (SK-OV-3 [26]): 1.17% | Activity (SK-OV-3 [27]): 39.84% | Activity (SK-OV-3 [28]): 3.86% | Activity (SK-OV-3 [29]): 2.25% | Activity (SK-OV-3 [30]): 54.94% | Activity (SK-OV-3 [31]): 12.11%
